Where a name gives a salt, the structure may show the parent alone.
Target: human recombinant mu opioid receptors (Homo sapiens, UniProt P35372)
Assay: Radioligand binding assay, mu opioid receptor
Experimental: Radioligand binding assays were conducted to determine the binding specificity of S-N-methynaltrexone for μ-, κ-, and δ-opiate receptors using methods adapted from scientific literature (Simonin, F et al 1994, Mol. Pharmacol 46:1015-1021; Maguire, P. et al 1992, Eur. J. Pharmacol. 213:219-225; Simonin, F. et al PNAS USA 92(15):1431-1437; Wang, J B 1994, FEBS Lett 338:217-222).

Sequence of human recombinant mu opioid receptors (P35372 whole entry): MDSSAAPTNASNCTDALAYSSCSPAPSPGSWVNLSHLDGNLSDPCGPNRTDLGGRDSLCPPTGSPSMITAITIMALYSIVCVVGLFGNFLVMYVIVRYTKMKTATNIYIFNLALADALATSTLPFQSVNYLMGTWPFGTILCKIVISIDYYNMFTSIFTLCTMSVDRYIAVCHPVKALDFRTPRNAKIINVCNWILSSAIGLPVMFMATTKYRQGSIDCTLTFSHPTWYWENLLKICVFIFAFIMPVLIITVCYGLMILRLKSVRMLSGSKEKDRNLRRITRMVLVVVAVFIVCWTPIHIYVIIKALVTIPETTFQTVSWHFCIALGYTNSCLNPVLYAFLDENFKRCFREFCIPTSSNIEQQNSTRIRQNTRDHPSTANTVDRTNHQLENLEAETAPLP

C[N@@+]1(CC2CC2)CC[C@]23c4c5ccc(O)c4OC2C(=O)CCC3(O)C1C5 (stereo partly drawn) [S-MNTX, (S)-N-(cyclopropylmethyl)-noroxymorphone methyl salt]
Ki: 0.198 µM

Source: patent publication US7563899B2, “(S)-N-methylnaltrexone” (Progenics Pharmaceuticals, Inc., priority 2005, dated 2009)
